# From patent US11685901B2, “Compositions and methods for organoid generation and disease modeling” (Salk Institute for Biological Studies, priority 2016, dated 2023)
# Test system: hiPSC-derived hepatocytes
# Test: Lipid accumulation and insulin resistance in hiPSC-derived hepatocytes / human mini liver
# Assay type: cell-based
# Settings: overnight culture
# Description: FIGS. 6A-6H are schematics and images showing generation of functional human mini-organs in a dish. FIG. 6A is a schematic showing generation of functional human mini organs including human islets, pancreas, liver, heart, and intestine. FIGS. 6B-6C show the generation of a human heart organoid. FIG. 6B (top) provides a schematic illustrating the protocol for differentiation of a human pluripotent stem cell (hPSC) into a cardiomyocyte (when cultured in 2D) or into a mini heart (when co-cultured with hADSCs and HUVECs in 3D). FIG. 6B (bottom left) provides a plot showing relative expression of cardiomyocyte-specific genes human MLC2a (hMLC2a), human Nkx2-5 (hNkx2-5), alpha myosin heavy chain (alphaMHC), and KCNQ1 before (day 0) and at day 18 of the differentiation protocol, with and without the PPARδ agonist GW501516. At the bottom right of FIG. 6B is a videomicrograph showing beating of the hiPSC-derived cardiomyocytes. […] FIGS. 6D-6F show generation of a human liver organoid. FIG. 6D (top) provides a schematic illustrating the protocol for differentiation of a human pluripotent stem cell (hPSC) into hepatocytes. FIG. 6D (bottom left) provides a plot showing relative expression of hepatocyte-specific genes AFP, ALB, and Cyp3a7, during the differentiation of 6 independent preparations. At the bottom right of FIG. 6D is a micrograph showing hiPSC-derived hepatocytes. […]
substance,measurement,value
phosphatidic acid,lipid droplets in hiPSC-derived hepatocytes,accumulation of lipid droplets
